From patent publication US20260167656A1, “PHOSPHORAMIDATE COMPOUNDS AND USES THEREOF” (ALLORION THERAPEUTICS INC, priority 2022, published 2026)

Experiments:
[1] = system: non-small cell lung cancer cell line H460; assay: In vitro human cancer cell line cytotoxicity (proliferation) assay in H460, CellTiter-Glo, 72 hours; assay type: cell-based; conditions: H460 cells, DMSO condition (no AKR1C3 inhibitor), read-out: CTG H460: Avg IC50 (nM) [Assay Condition: DMSO]
Outline: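 H460 cells were seeded at 3×10^3 per well and grown 24 h at 37 °C, 5% CO2 before compound addition from 10 mM DMSO stocks. After 72 h further incubation, viability was measured by CellTiter-Glo, and IC50 values in nM were derived from the proliferation data.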

[2] = system: non-small cell lung cancer cell line H460; assay: H460 proliferation assay in the presence of 3 uM ASP9521 (AKR1C3 specific inhibitor); assay type: cell-based, human; conditions: H460 cells, CellTiter-Glo, 72 hours, in the presence of 3 uM ASP9521 added 4 hours prior to compounds; read-out: CTG H460: Avg IC50 (nM) [Assay Condition: ASP9521]
Outline: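 H460 cells pre-incubated 24 h, then exposed to compounds for 72 h at 37 °C, 5% CO2. Viability read by CellTiter-Glo. ASP9521 (3 uM, AKR1C3 inhibitor) added 4 h before compounds.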

SMILES | IC50 [1] [nM] | IC50 [2] [nM] | IC50 ([1]; Homo sapiens, NCI-H460, 72 h) [nM]
CS(=O)(=O)c1ccc(Oc2c([N+](=O)[O-])ccc3c2CCC3OP(=O)(N2CC2)N2CC2)cc1 (stereo not drawn) [Example 504] | < 10 | 288 | 
CSc1ccc(Oc2c([N+](=O)[O-])ccc3c2CC[C@@H]3OP(=O)(N2CC2)N2CC2)cc1-c1nc(C)ns1 [Example 376] |  | 1850 | < 10
O=[N+]([O-])c1ccc2c(c1Oc1cccc(-n3ccc(C4CC4)n3)c1)CCC2OP(=O)(N1CC1)N1CC1 (stereo not drawn) [Example 116] | 10 to 50 | 5560 | 
O=[N+]([O-])c1ccc2c(c1Oc1ccc3c(c1)OCO3)CC[C@@H]2OP(=O)(N1CC1)N1CC1 [Example 394] |  | 388 | < 10
O=[N+]([O-])c1ccc2c(c1Oc1cccc(OC(F)(F)F)c1)CC[C@@H]2OP(=O)(N1CC1)N1CC1 [Example 449] | < 10 | 570 | 
O=[N+]([O-])c1ccc2c(c1Oc1cccc(-c3noc(C4CC4)n3)c1)CCC2OP(=O)(N1CC1)N1CC1 (stereo not drawn) [Example 90] |  | 9470 | ≥ 100
CN1CC(=O)N(c2cccc(Oc3c([N+](=O)[O-])ccc4c3CCC4OP(=O)(N3CC3)N3CC3)c2)CC1=O (stereo not drawn) [Example 122] |  | 3090 | 10 to 50
O=[N+]([O-])c1ccc2c(c1Oc1ccc(-c3ccc(F)cc3)cc1)CCC2OP(=O)(N1CC1)N1CC1 (stereo not drawn) [Example 21] |  | 1420 | < 10
O=C1CCCN1c1cccc(Oc2c([N+](=O)[O-])ccc3c2CCC3OP(=O)(N2CC2)N2CC2)c1 (stereo not drawn) [Example 112] | < 10 | 243 | 
O=[N+]([O-])c1ccc2c(c1Oc1ccc3ncccc3c1)CC[C@@H]2OP(=O)(N1CC1)N1CC1 [Example 400] |  | 452 | < 10
C[C@@H](OP(=O)(N1CC1)N1CC1)c1cc2cc(Oc3cncc(-c4ccccc4)c3)c([N+](=O)[O-])cc2o1 [Example 567] | < 10 | 2110 | 
O=[N+]([O-])c1cc2c(cc1Oc1ccc(-c3ccc(F)cn3)c(F)c1)C(OP(=O)(N1CC1)N1CC1)CC2 (stereo not drawn) [Example 142] |  | 4130 | < 10
O=[N+]([O-])c1ccc2c(c1Oc1ccc(F)c(-c3ccccn3)c1)CCC2OP(=O)(N1CC1)N1CC1 (stereo not drawn) [Example 336] | < 10 | 1680 | 
O=[N+]([O-])c1ccc2c(c1Oc1ccccc1)CCC2OP(=O)(N1CC1)N1CC1 (stereo not drawn) [Example 16, 5-nitro-4-phenoxy-2,3-dihydro-1H-inden-1-yl di(aziridin-1-yl)phosphinate] |  | 261 | 10 to 50
CC(C)Oc1cccc(Oc2c([N+](=O)[O-])ccc3c2CCC3OP(=O)(N2CC2)N2CC2)c1 (racemic) [Example 451] | < 10 | 1030 | 
Cc1nccc(-c2ccc(Oc3c([N+](=O)[O-])ccc4c3CC[C@H]4OP(=O)(N3CC3)N3CC3)cc2)n1 [Example 286] | < 10 | 1870 | 
O=C1CCCCN1c1cccc(Oc2c([N+](=O)[O-])ccc3c2CCC3OP(=O)(N2CC2)N2CC2)c1 (stereo not drawn) [Example 107] |  | 6500 | 10 to 50
O=[N+]([O-])c1ccc2c(c1Oc1ccc(-c3ccc(F)cc3)cc1)OCCC2OP(=O)(N1CC1)N1CC1 (stereo not drawn) [Example 133] | 10 to 50 | 1620 | 
O=[N+]([O-])c1ccc2c(c1Oc1ccc(O)c(-c3ncccn3)c1)CC[C@@H]2OP(=O)(N1CC1)N1CC1 [Example 341] |  | 1920 | < 10
O=[N+]([O-])c1ccc2c(c1Oc1cc(F)cc(-c3ccc(F)cn3)c1)CC[C@@H]2OP(=O)(N1CC1)N1CC1 [Example 358] |  | 1740 | < 10
CN1Cc2ccc(Oc3c([N+](=O)[O-])ccc4c3CCC4OP(=O)(N3CC3)N3CC3)cc2C1=O (stereo not drawn) [Example 24] | < 10 | 916 | 
O=[N+]([O-])c1ccc2c(c1Oc1ccc(-c3ccc(F)cn3)c(F)c1)CCC2OP(=O)(N1CC1)N1CC1 (stereo not drawn) [Example 29] |  | 1220 | < 10
Cn1cccc(-c2ccc(Oc3c([N+](=O)[O-])ccc4c3CCC4OP(=O)(N3CC3)N3CC3)cc2)c1=O (stereo not drawn) [Example 48] | ≥ 100 | 1010 | 
CN1Cc2cc(Oc3c([N+](=O)[O-])ccc4c3CCC4OP(=O)(N3CC3)N3CC3)ccc2C1=O (single isomer, unassigned) [Example 43] | < 10 | 314 | 
Cn1cc(-c2ccc(Oc3c([N+](=O)[O-])ccc4c3CC[C@H]4OP(=O)(N3CC3)N3CC3)cc2)cn1 [Example 273] | < 10 | 1400 | 
O=[N+]([O-])c1ccc2c(c1Oc1cccc(-c3cccnc3)c1)CC[C@@H]2OP(=O)(N1CC1)N1CC1 [Example 310] |  | 2010 | < 10

SMILES | IC50 [1] [nM] | IC50 [2] [nM] | IC50 ([1]; Homo sapiens, NCI-H460, 72 h) [nM]
CN1Cc2ccc(Oc3cc4c(cc3[N+](=O)[O-])OCCC4OP(=O)(N3CC3)N3CC3)cc2C1=O (single isomer, unassigned) [Example 202] | < 10 | 1390 | 
O=C1OCCN1c1ccc(Oc2cc3c(cc2[N+](=O)[O-])CCC3OP(=O)(N2CC2)N2CC2)cc1 (stereo not drawn) [Example 165] | < 10 | 89.7 | 
COc1ccc(Oc2c([N+](=O)[O-])ccc3c2CCC3OP(=O)(N2CC2)N2CC2)cc1OC1CC1 (stereo not drawn) [Example 483] | < 10 | 735 | 
O=[N+]([O-])c1cc2oc(COP(=O)(N3CC3)N3CC3)cc2cc1Oc1ccnc(-c2ccccc2)c1 [Example 538] |  | 711 | < 10
Cn1cccc(-c2ccc(Oc3c([N+](=O)[O-])ccc4c3CCC4OP(=O)(N3CC3)N3CC3)cc2)c1=O (stereo not drawn) [Example 49] | < 10 | 920 | 
Cc1ccnc(-c2ccc(Oc3c([N+](=O)[O-])ccc4c3CC[C@@H]4OP(=O)(N3CC3)N3CC3)cc2)n1 (single isomer, unassigned) [Example 264] |  | 1370 | < 10
CC(C)COc1cccc(Oc2c([N+](=O)[O-])ccc3c2CCC3OP(=O)(N2CC2)N2CC2)c1 (stereo not drawn) [Example 485] | < 10 | 1150 | 
O=[N+]([O-])c1ccc2c(c1Oc1cccc(-n3ncnn3)c1)CC[C@@H]2OP(=O)(N1CC1)N1CC1 [Example 436] |  | 138 | < 10
O=C(c1cccc(Oc2c([N+](=O)[O-])ccc3c2CCC3OP(=O)(N2CC2)N2CC2)c1)N1CCCC1 (stereo not drawn) [Example 100] | < 10 | 618 | 
O=[N+]([O-])c1ccc2c(c1Oc1cccc(-n3cccn3)c1)CCC2OP(=O)(N1CC1)N1CC1 (stereo not drawn) [Example 114] | < 10 | 1280 | 
Cn1ccc2cc(F)c(Oc3c([N+](=O)[O-])ccc4c3CCC4OP(=O)(N3CC3)N3CC3)cc21 (stereo not drawn) [Example 402] | < 10 | 712 | 
CN(C)C(=O)c1cccc(Oc2cc3cc(COP(=O)(N4CC4)N4CC4)oc3cc2[N+](=O)[O-])c1 [Example 229, (5-(3-(dimethylcarbamoyl)phenoxy)-6-nitrobenzofuran-2-yl)methyl di(aziridin-1-yl)phosphinate] |  | 515 | < 10
CC(C)COc1cccc(Oc2c([N+](=O)[O-])ccc3c2CCC3OP(=O)(N2CC2)N2CC2)c1 (stereo not drawn) [Example 484] | < 10 | 1990 | 
O=C1COCCN1c1cccc(Oc2c([N+](=O)[O-])ccc3c2CCC3OP(=O)(N2CC2)N2CC2)c1 (stereo not drawn) [Example 110] | < 10 | 2420 | 
Cn1c(=O)oc2ccc(Oc3c([N+](=O)[O-])ccc4c3CCC4OP(=O)(N3CC3)N3CC3)cc21 (single isomer, unassigned) [Example 64] |  | 722 | < 10
O=[N+]([O-])c1cc2oc(COP(=O)(N3CC3)N3CC3)cc2cc1Oc1cccc(C2CC2)c1 [Example 555] | < 10 | 1490 | 
C[C@H](OP(=O)(N1CC1)N1CC1)c1cc2cc(Oc3cncc(-c4ccccc4)c3)c([N+](=O)[O-])cc2o1 [Example 568] | < 10 | 1920 | 
CNC(=O)c1ccc(Oc2c([N+](=O)[O-])ccc3c2OCCC3OP(=O)(N2CC2)N2CC2)cc1 (stereo not drawn) [Example 136] | 50 to 100 | 913 | 
CN(C)C(=O)c1ccc(Oc2c([N+](=O)[O-])ccc3c2OCCC3OP(=O)(N2CC2)N2CC2)cc1 (single isomer, unassigned) [Example 130] |  | 389 | 10 to 50
CN1CCOc2ccc(Oc3cc4c(cc3[N+](=O)[O-])CCC4OP(=O)(N3CC3)N3CC3)cc2C1=O (stereo not drawn) [Example 158] |  | 4680 | 50 to 100
O=C1c2cc(Oc3c([N+](=O)[O-])ccc4c3OCCC4OP(=O)(N3CC3)N3CC3)ccc2CN1C1CC1 (single isomer, unassigned) [Example 138] |  | 579 | < 10
Cn1cc(-c2cccc(Oc3c([N+](=O)[O-])ccc4c3CCC4OP(=O)(N3CC3)N3CC3)c2)cn1 (single isomer, unassigned) [Example 77] | < 10 | 1890 | 
O=[N+]([O-])c1ccc2c(c1Oc1ccc(-c3cccnc3)cc1)CC[C@H]2OP(=O)(N1CC1)N1CC1 [Example 272] | 10 to 50 | 3120 | 
Cc1ccnc(-c2ccc(Oc3c([N+](=O)[O-])ccc4c3CCC4OP(=O)(N3CC3)N3CC3)cc2)n1 (racemic) [Example 280] | < 10 | 1300 | 
C[C@@H](OP(=O)(N1CC1)N1CC1)c1cc2cc(Oc3ccc4c(c3)CN(C)C4=O)c([N+](=O)[O-])cc2o1 [Example 564] | 10 to 50 | 2690 | 
